In patent US11358973B2, “Di(hetero)aryl macrocyclic compound for inhibiting protein kinase activity” (Shenzhen TargetRx, Inc., priority 2018, dated 2022):
Like-named read-outs stand apart in the source and are kept apart here.

Tests used:
TRKA kinase = TRKA kinase (Homo sapiens, UniProt P04629); assay: Biochemical kinase analysis (HTRF), TRKA; conditions: 23° C., read-out: Kinase IC50 (nM) TRK A
Method: (§1) Inhibition of TRKA, TRKB, TRKC kinases can be measured by HTRF ([…]) method. The reaction was performed in a 384-well plate at 23° C. with a volume of 20 μL. TRKA TRKB or TRKC kinase were mixed with pre-formulated and diluted compounds of different concentrations for ten minutes in duplicate for each concentration, wherein 11 concentrations made with a 3-fold gradient dilution from the starting concentration of 300 nM were made and the final concentration of DMSO was 2%. The corresponding substrate and ATP were added thereto, and reacted at room temperature for 20 minutes (both a negative and a positive control were set: negative control is blank control, positive control is Entrectinib). After the reaction, detection reagent was added thereto (reagent in HTRF Kinase TK kit), and after incubation at room temperature for 30 minutes, detection was carried out by PerkinElmer Envision microplate reader for determining enzyme activity in the presence of the compounds of the present disclosure at various concentrations, and the inhibitory activity of different concentrations of compounds against enzyme activity was calculated. After that, in accordance with four-factors function and Graphpad 5.0 software, inhibitory activity on enzyme activity under different concentrations of compounds was fitted and IC50 values were calculated.

TRKB kinase = TRKB kinase (Homo sapiens, UniProt Q16620); assay: Biochemical kinase analysis (HTRF), TRKB; conditions: 23° C., read-out: Kinase IC50 (nM) TRK B
Sequence of TRKB kinase (Q16620 32-822): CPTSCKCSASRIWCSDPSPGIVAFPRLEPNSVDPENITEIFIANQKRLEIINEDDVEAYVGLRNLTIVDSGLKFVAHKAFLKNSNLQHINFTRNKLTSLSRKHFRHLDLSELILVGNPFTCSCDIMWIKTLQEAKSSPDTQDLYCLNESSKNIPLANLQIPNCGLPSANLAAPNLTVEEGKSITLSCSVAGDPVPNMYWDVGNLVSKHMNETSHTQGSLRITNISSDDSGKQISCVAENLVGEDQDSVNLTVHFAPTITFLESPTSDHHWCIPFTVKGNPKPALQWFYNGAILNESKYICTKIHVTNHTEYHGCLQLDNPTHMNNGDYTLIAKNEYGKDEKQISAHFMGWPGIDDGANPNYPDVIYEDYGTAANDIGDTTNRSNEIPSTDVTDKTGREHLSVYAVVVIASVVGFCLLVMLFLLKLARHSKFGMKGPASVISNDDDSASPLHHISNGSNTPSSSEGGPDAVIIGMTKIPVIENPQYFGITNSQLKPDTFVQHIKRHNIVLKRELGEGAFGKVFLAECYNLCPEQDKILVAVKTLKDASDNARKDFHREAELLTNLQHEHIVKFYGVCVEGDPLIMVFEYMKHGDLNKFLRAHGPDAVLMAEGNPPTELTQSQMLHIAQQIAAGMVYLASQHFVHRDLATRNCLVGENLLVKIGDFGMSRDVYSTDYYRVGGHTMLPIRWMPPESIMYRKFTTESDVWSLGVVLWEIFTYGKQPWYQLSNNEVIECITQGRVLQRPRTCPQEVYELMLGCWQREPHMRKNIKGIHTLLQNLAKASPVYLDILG
Method: as §1

TRKC kinase = TRKC kinase (Homo sapiens, UniProt Q16288); assay: Biochemical kinase analysis (HTRF), TRKC; conditions: 23° C., read-out: Kinase IC50 (nM) TRK C
Sequence of TRKC kinase (Q16288 32-839): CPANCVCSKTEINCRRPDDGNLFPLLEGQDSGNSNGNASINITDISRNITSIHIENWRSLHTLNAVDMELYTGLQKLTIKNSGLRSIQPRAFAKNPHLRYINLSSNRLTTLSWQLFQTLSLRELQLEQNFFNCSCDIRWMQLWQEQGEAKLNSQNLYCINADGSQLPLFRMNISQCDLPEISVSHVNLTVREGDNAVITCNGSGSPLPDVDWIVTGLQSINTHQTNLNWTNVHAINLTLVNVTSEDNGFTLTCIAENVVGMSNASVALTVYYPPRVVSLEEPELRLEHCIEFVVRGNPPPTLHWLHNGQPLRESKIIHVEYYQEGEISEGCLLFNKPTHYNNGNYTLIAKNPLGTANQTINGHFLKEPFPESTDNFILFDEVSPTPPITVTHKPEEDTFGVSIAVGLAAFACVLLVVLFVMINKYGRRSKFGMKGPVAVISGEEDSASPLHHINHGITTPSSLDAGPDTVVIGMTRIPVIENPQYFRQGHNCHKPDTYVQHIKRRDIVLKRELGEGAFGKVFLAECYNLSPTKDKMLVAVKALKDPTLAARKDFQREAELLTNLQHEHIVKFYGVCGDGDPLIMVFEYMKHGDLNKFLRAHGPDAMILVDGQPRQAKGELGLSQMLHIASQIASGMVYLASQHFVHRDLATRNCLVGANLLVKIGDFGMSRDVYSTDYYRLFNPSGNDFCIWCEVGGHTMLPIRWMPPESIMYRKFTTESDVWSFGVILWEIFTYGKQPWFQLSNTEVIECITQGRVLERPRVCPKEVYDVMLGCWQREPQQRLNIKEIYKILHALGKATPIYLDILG
Method: as §1

KM12 cell line = assay: KM12 cell proliferation analysis (CellTiter-Glo); type: cell-based; conditions: Homo sapiens, 72 h
Method: The CGT method was used to detect the in vitro anti-proliferative activity of the compounds of the present disclosure on tumor cells cultured in vitro. The KM12 cell line was maintained in RPMI-1640 medium containing 10% fetal bovine serum and antibiotics, the cells in the logarithmic growth phase were harvested and planted in a 96-well plate. The plate was incubated in an incubator at 37° C., containing 5% carbon dioxide gas overnight. After the test compounds were dissolved in DMSO, a 3-fold concentration gradient dilution with 9 compound concentrations was made. Pre-prepared compounds of different concentrations were transferred to the cell plate in triplicate for each concentration, and continue culturing for 72 h. The final concentration of DMSO in the system was 0.1%, and the initial concentration of the test compound was 300 nM.
CellTiter-Glo reagent was added to the cell plate, and incubated at room temperature for 30 minutes to stabilize the optical signal. Detection was carried out by PerkinElmer Envision microplate reader for determining the inhibitory activity of the compound of the present disclosure at various concentrations on cell proliferation. The inhibitory activity of compounds at different concentrations on cell proliferation was fitted according to Graphpad 5.0 software, and IC50 values were calculated.

[1] = Pharmacokinetic experiment in rats; type: in vivo, Sprague-Dawley rats; design: Cl_pred (L/kg): unit not given here; conditions: rat; for AUC(0-inf): read-out: AUCINF_pred; for MRT inf: read-out: MRTINF_pred
Method: 6 male Sprague-Dawley rats (7-8 weeks old, and weighing approximately 210 g) were divided into 2 groups with 3 rats in each group. The rats were intravenously or orally administered a single dose of compounds (3 mg/kg intravenously, 10 mg/kg orally) to compare pharmacokinetic differences.
The rats were feeded on standard food and water. Fasting was started 16 hours before the test. The drug was dissolved in PEG400 and dimethyl sulfoxide. The blood samples were collected from eyelids at the time points of 0.083 hour, 0.25 hour, 0.5 hour, 1 hour, 2 hours, 4 hours, 6 hours, 8 hours, 12 hours, and 24 hours after administration.
Rats were briefly anesthetized after inhalation of diethyl ether and 300 μL of blood sample was collected from the eyelids into test tubes. There was 30 μL of 1% heparin salt solution in the test tube. Tubes were dried at 60° C. overnight before use. After the blood sample was collected at the last time point, the rats were sacrificed after ether anesthesia.
Immediately after the collection of the blood sample, the test tube was gently inverted at least 5 times to ensure sufficient mixing and then placed on ice. The blood sample was centrifuged at 5000 rpm at 4° C. for 5 minutes to separate the plasma from the red blood cells. 100 μL of plasma was aspirated into a clean plastic centrifuge tube with a pipette, marking with the name of the compound and time point. Plasma was stored at −80° C. prior to analysis. The concentration of the compound of the present disclosure in plasma was determined by LC-MS/MS. The pharmacokinetic parameters were calculated based on the blood concentration of the drug for each animal at different time points.

[2] = male, Sprague-Dawley, plasma, IV 3 mg/kg
[3] = male, Sprague-Dawley, plasma, PO 10 mg/kg

Sequence of TRKA kinase (P04629 33-796): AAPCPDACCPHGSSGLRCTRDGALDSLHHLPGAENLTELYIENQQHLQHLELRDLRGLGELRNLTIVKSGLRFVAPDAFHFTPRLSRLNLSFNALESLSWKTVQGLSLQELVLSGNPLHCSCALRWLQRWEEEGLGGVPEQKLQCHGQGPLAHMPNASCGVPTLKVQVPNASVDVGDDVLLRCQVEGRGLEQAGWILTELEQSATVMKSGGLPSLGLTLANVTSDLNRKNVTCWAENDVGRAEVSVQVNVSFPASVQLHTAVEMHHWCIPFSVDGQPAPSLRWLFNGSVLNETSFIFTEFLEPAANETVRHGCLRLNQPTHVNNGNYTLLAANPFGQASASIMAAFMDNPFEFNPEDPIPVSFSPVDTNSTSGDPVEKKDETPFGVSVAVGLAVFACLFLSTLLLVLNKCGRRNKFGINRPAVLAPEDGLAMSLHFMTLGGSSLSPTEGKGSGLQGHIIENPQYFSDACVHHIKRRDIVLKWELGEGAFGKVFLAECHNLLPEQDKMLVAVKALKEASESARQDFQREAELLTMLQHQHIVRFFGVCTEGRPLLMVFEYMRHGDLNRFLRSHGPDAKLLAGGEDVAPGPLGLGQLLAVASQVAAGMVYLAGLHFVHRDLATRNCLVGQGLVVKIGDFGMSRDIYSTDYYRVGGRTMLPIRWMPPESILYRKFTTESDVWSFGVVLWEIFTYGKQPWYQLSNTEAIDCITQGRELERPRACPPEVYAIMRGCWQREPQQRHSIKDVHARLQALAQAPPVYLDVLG

IC50 (TRKA kinase): 0.19 nM
IC50 (TRKB kinase): 0.1 nM
IC50 (TRKC kinase): 0.06 nM
AUC(0-t) [1, 2]: 6560 ng·h/mL
Cmax [1, 2]: 2100 ng/mL
Tmax [1, 2]: 0.08 h
half-life [1, 2]: 5.59 h
AUC(0-inf) [1, 2]: 6620 ng·h/mL
MRT inf [1, 2]: 3.44 h
AUC(0-t) [1, 3]: 11500 ng·h/mL
Cmax [1, 3]: 994 ng/mL
Tmax [1, 3]: 2.17 h
half-life [1, 3]: 4.84 h
bioavailability ([1]; male, Sprague-Dawley, plasma, PO 10 mg/kg vs IV 3 mg/kg): 52.7%
AUC(0-inf) [1, 3]: 12900 ng·h/mL
MRT inf [1, 3]: 7.37 h
Cl_pred (L/kg) ([1]; IV 3 mg/kg): 0.45
Vz_pred ([1]; IV 3 mg/kg): 2.67 L/kg
Cl_pred (L/kg) ([1]; PO 10 mg/kg): 0.83
Vz_pred ([1]; PO 10 mg/kg): 6.70 L/kg
SMILES: C[C@H]1CC(=O)Nc2cnn3ccc(nc23)N[C@H](C)c2cc(F)ccc2O1 [Compound T-2-A, (7S,13R)-11-fluoro-7,13-dimethyl-6,7,13,14-tetrahydro-1,15-ethenopyrazolo[4,3-f][1,4,8,10]benzoxatriazacyclotiidecin-5(6H)-one]
IC50 (KM12 cell line): 1.6 nM
